In patent publication US6723364B1, “Fog treatment method using a liquid composition for treating fruits and vegetables and implementing device” (Xeda International, priority 1998, dated 2004):
Converted amounts (≈) assume the structure as drawn. Where two headings read alike, the source gives them in different places.

What was measured:
Format in all cases: cell-based
Escherichia coli = assay: Bactericidal activity in vitro in LB agar medium; conditions: read-out: MIC (concentration needed to completely inhibit the growth of the bacteria)
Description: (§1) The bactericidal activity of eugenol and isoeugenol was evaluated in vitro and compared with that of other terpenes.
(§2) The culture medium used is the following LB medium:
(§3) Bactotryptone: 1% by weight
(§4) Yeast extract: 0.5% by weight
(§5) A suspension of bacteria at 10^6 CFU/ml was prepared in sterilized water from the LB medium. 200 μl of this bacterial suspension were added to 20 ml of presterilized LB culture medium brought to 55° C. The tested terpene is then added to the culture medium. After agitation, the medium is immediately divided among Petri dishes. The medium solidifies on cooling.
(§6) Incubation is carried out at 28° C. when the bacterium is Erwinia carotovora and at 37° C. when the bacterium is Escherichia coli.
(§7) The growth of mould in the culture medium is observed. The same experiment is carried out in the absence of terpene (control experiment).
(§8) The protocol used is that described above.

[1] = test system: species of fungus (AA, BC, FO, GC, GR, PD, PE, PV, PhP); assay: Fungicidal activity in vitro: total of inhibition grades over the nine species of fungus; conditions: sum of the grades over the nine fungi
Description: (§9) The Cristomalt medium used for the evaluations of the fungicidal activities comprises 0.1% of Cristomalt (malt extract) and 0.2% of agar.
(§10) This culture medium is, after sterilization, brought to 55° C. The terpene compound tested is then introduced in the pure form into the culture medium under warm conditions. Immediately after agitating, the medium, enriched with the terpene product, is poured into Petri dishes (diameter 9 cm, filled with 20 ml of medium). The agar-comprising medium solidifies on cooling. The Petri dishes are then inoculated with plugs, with a diameter of 6 mm, withdrawn from the edge of a culture of the tested fungus, which culture is obtained on Cristomalt medium.
(§11) Inoculation is carried out at 22° C.
(§12) The mycelial growth was determined periodically (5 to 15 days, according to the species of fungus).
The results obtained are analysed simply by using the assessment scale illustrated in Table 2:
The results obtained have been expressed in Table 3 using the scale in Table 2.

Erwinia carotovora = assay: Bactericidal activity in vitro in LB agar medium; conditions: for MIC: Pectobacterium carotovorum, read-out: MIC (concentration needed to completely inhibit the growth of the bacteria)
Description: as §1, §2, §3, §4, §5, §6, §7
The results are evaluated using the following assessment scale:
++: mould growth identical to the control
+: mould present with a marked reduction in growth with respect to the control
: complete absence of growth.
The results obtained for 3 different concentrations, namely 20, 80 and 320 μg/ml, in the case of the bacterium Erwinia carotovora are summarized in Table 7.
as §8

Penicillium expansum = assay: Germination of the spores in vitro; conditions: PE;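 also: ++ germination like control and 0 no spores germinated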
Description: (§13) The activity of eugenol and of isoeugenol on the germination of the spores was evaluated in vitro and compared with that of other terpenes.
(§14) The procedure of Example 4 is used to do this, except that the concentration of eugenol and of isoeugenol was set at x μg/ml in the culture media used and that 50 μl of a suspension of spores, adjusted to 100,000 spores/ml, are deposited in each Petri dish.
(§15) The same experiment was carried out starting with a terpene-free culture medium (control test).
(§16) The results were evaluated using the following assessment criteria:
(§17) +: considerable reduction in the level of spores germinated
(§18) The results obtained for 3 different concentrations of terpenes in the culture medium, namely 40 μg/ml, 80 μg/ml and 1280 μg/ml, are listed in Tables 4, 5 and 6.

Botrytis cinerea [2] = assay: Germination of the spores in vitro; conditions: BC
Description: as §13, §14, §15, §16, §17, §18

Penicillium digitatum [3] = assay: Germination of the spores in vitro; conditions: PD
Description: as §13, §14, §15, §16, §17, §18

Phytophtora parasitica [4] = assay: Germination of the spores in vitro; conditions: PhP
Description: as §13, §14, §15, §16, §17, §18

Alternaria alternata [5] = assay: Germination of the spores in vitro; conditions: AA;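 also: ++ germination like control and 0 no spores germinated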
Description: as §13, §14, §15, §16, §17, §18

[6] = test system: Phlyctaena vagabonda (“Gloeosporium”); assay: Germination of the spores in vitro; conditions: PV;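 also: ++ germination like control and 0 no spores germinated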
Description: as §13, §14, §15, §16, §17, §18

Fusarium oxysporum [7] = assay: Germination of the spores in vitro; conditions: FO;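 also: ++ germination like control and 0 no spores germinated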
Description: as §13, §14, §15, §16, §17, §18

Geocrichum candidum [8] = assay: Germination of the spores in vitro; conditions: GC
Description: as §13, §14, §15, §16, §17, §18

Botrytis cinerea [9] = assay: Fungicidal activity in vitro: mycelial growth on Cristomalt agar; conditions: for Inhibition grades: MIC expressed on the scale of Table 2; for MIC: Botrytis cinerea, read-out: MIC (content giving complete inhibition of mycelial growth)
Description: as §9, §10, §11, §12
(§19) The results are expressed in Table 3 below in terms of MIC, which is the content (in μg/ml) which makes it possible to obtain complete inhibition of mycelial growth.
(§20) In f act, each experiment was carried out several times, so that, for each terpene and for each species of fungus, a minimum value and a maximum value were obtained.

Penicillium digitatum [10] = assay: as above; conditions: for Inhibition grades: MIC expressed on the scale of Table 2; for MIC: Penicillium digitatum, read-out: MIC (content giving complete inhibition of mycelial growth)
Description: as §9, §10, §11, §12, §19, §20

Phytophtora parasitica [11] = assay: as above; conditions: for Inhibition grades: MIC expressed on the scale of Table 2; for MIC: read-out: MIC (content giving complete inhibition of mycelial growth)
Description: as §9, §10, §11, §12, §19, §20

Alternaria alternata [12] = assay: as above; conditions: for Inhibition grades: MIC expressed on the scale of Table 2; for MIC: Alternaria alternata, read-out: MIC (content giving complete inhibition of mycelial growth)
Description: as §9, §10, §11, §12, §19, §20

Gliocladium roseum = assay: as above; conditions: for MIC: Clonostachys rosea, read-out: MIC (content giving complete inhibition of mycelial growth); for Inhibition grades: MIC expressed on the scale of Table 2
Description: as §9, §10, §11, §12, §19, §20

Fusarium oxysporum [13] = assay: as above; conditions: for MIC: Fusarium oxysporum, read-out: MIC (content giving complete inhibition of mycelial growth); for Inhibition grades: OF, MIC expressed on the scale of Table 2
Description: as §9, §10, §11, §12, §19, §20

Geocrichum candidum [14] = assay: as above; conditions: for Inhibition grades: MIC expressed on the scale of Table 2; for MIC: read-out: MIC (content giving complete inhibition of mycelial growth)
Description: as §9, §10, §11, §12, §19, §20

[15] = Concentration 320 μg/ml, 28° C.

Compound: CC=Cc1ccc(O)c(OC)c1 [ISOEUGENOL, isoeugenol]
- MIC (Escherichia coli; Escherichia sp., 37° C.): 40 to 80 µg/mL (≈ 244 to 487 µM)
- Total of the degrees of inhibition [1]: 64
- growth in the culture medium with respect to the control (Erwinia carotovora; Concentration 20 μg/ml, 28° C.): +
- growth in the culture medium with respect to the control (Erwinia carotovora; Concentration 80 μg/ml, 28° C.): −
- growth in the culture medium with respect to the control (Erwinia carotovora; [15]): −
- MIC (Erwinia carotovora; Erwinia sp., 28° C.): 20 to 40 µg/mL (≈ 122 to 244 µM)
- germination of the spores (Penicillium expansum; x = 40 μg/ml): 0
- germination of the spores (Penicillium expansum; x = 80 μg/ml): 0
- germination of the spores (Penicillium expansum; x = 1280 μg/ml): 0
- germination of the spores (Botrytis cinerea [2]; x = 40 μg/ml): ++
- germination of the spores (Botrytis cinerea [2]; x = 80 μg/ml): 0
- germination of the spores (Botrytis cinerea [2]; x = 1280 μg/ml): 0
- germination of the spores (Penicillium digitatum [3]; x = 40 μg/ml): 0
- germination of the spores (Penicillium digitatum [3]; x = 80 μg/ml): 0
- germination of the spores (Penicillium digitatum [3]; x = 1280 μg/ml): 0
- germination of the spores (Phytophtora parasitica [4]; x = 40 μg/ml): 0
- germination of the spores (Phytophtora parasitica [4]; x = 80 μg/ml): 0
- germination of the spores (Phytophtora parasitica [4]; x = 1280 μg/ml): 0
- germination of the spores (Alternaria alternata [5]; x = 40 μg/ml): 0
- germination of the spores (Alternaria alternata [5]; x = 80 μg/ml): 0
- germination of the spores (Alternaria alternata [5]; x = 1280 μg/ml): 0
- germination of the spores ([6]; x = 40 μg/ml): 0
- germination of the spores ([6]; x = 80 μg/ml): 0
- germination of the spores ([6]; x = 1280 μg/ml): 0
- germination of the spores (Fusarium oxysporum [7]; x = 40 μg/ml): 0
- germination of the spores (Fusarium oxysporum [7]; x = 80 μg/ml): 0
- germination of the spores (Fusarium oxysporum [7]; x = 1280 μg/ml): 0
- germination of the spores (Geocrichum candidum [8]; x = 40 μg/ml): 0
- germination of the spores (Geocrichum candidum [8]; x = 80 μg/ml): 0
- germination of the spores (Geocrichum candidum [8]; x = 1280 μg/ml): 0
- Inhibition grades (Botrytis cinerea [9]; BC): 7 (20-40)
- MIC (Botrytis cinerea [9]; BC, min-max range of several experiments, 22° C.): 20 to 40 µg/mL (≈ 122 to 244 µM)
- Inhibition grades (Penicillium digitatum [10]; PD): 7 (20-40)
- MIC (Penicillium digitatum [10]; PD, min-max range of several experiments, 22° C.): 20 to 40 µg/mL (≈ 122 to 244 µM)
- Inhibition grades (Phytophtora parasitica [11]; PhP): 7 (20-40)
- MIC (Phytophtora parasitica [11]; PhP, min-max range of several experiments, 22° C.): 20 to 40 µg/mL (≈ 122 to 244 µM)
- Inhibition grades (Alternaria alternata [12]; AA): 7 (20-40)
- MIC (Alternaria alternata [12]; AA, min-max range of several experiments, 22° C.): 20 to 40 µg/mL (≈ 122 to 244 µM)
- MIC (Gliocladium roseum; GR, min-max range of several experiments, 22° C.): 20 to 40 µg/mL (≈ 122 to 244 µM)
- Inhibition grades (Gliocladium roseum; GR): 7 (20-40)
- MIC (Fusarium oxysporum [13]; FO, min-max range of several experiments, 22° C.): 20 to 40 µg/mL (≈ 122 to 244 µM)
- Inhibition grades (Fusarium oxysporum [13]): 7 (20-40)
- Inhibition grades (Geocrichum candidum [14]; GC): 8 (10-20)
- MIC (Geocrichum candidum [14]; GC, min-max range of several experiments, 22° C.): 10 to 20 µg/mL (≈ 60.9 to 122 µM)

Compound: C=CCc1ccc2c(c1)OCO2 [SAFROLE, safrole]
- MIC (Escherichia coli): > 640 µg/mL
- Total of the degrees of inhibition [1]: 42
- growth in the culture medium with respect to the control (Erwinia carotovora; Concentration 20 μg/ml, 28° C.): ++
- growth in the culture medium with respect to the control (Erwinia carotovora; Concentration 80 μg/ml, 28° C.): ++
- growth in the culture medium with respect to the control (Erwinia carotovora; [15]): +
- MIC (Erwinia carotovora): 320 to 640 µg/mL (≈ 1970 to 3950 µM)
- germination of the spores (Penicillium expansum; x = 40 μg/ml): +
- germination of the spores (Penicillium expansum; x = 80 μg/ml): +
- germination of the spores (Penicillium expansum; x = 1280 μg/ml): +
- germination of the spores (Botrytis cinerea [2]; x = 40 μg/ml): +
- germination of the spores (Botrytis cinerea [2]; x = 80 μg/ml): 0
- germination of the spores (Botrytis cinerea [2]; x = 1280 μg/ml): 0
- germination of the spores (Penicillium digitatum [3]; x = 40 μg/ml): +
- germination of the spores (Penicillium digitatum [3]; x = 80 μg/ml): +
- germination of the spores (Penicillium digitatum [3]; x = 1280 μg/ml): 0
- germination of the spores (Phytophtora parasitica [4]; x = 40 μg/ml): 0
- germination of the spores (Phytophtora parasitica [4]; x = 80 μg/ml): 0
- germination of the spores (Phytophtora parasitica [4]; x = 1280 μg/ml): 0
- germination of the spores (Alternaria alternata [5]; x = 40 μg/ml): ++
- germination of the spores (Alternaria alternata [5]; x = 80 μg/ml): +
- germination of the spores (Alternaria alternata [5]; x = 1280 μg/ml): 0
- germination of the spores ([6]; x = 40 μg/ml): +
- germination of the spores ([6]; x = 80 μg/ml): +
- germination of the spores ([6]; x = 1280 μg/ml): 0
- germination of the spores (Fusarium oxysporum [7]; x = 40 μg/ml): ++
- germination of the spores (Fusarium oxysporum [7]; x = 80 μg/ml): +
- germination of the spores (Fusarium oxysporum [7]; x = 1280 μg/ml): 0
- germination of the spores (Geocrichum candidum [8]; x = 40 μg/ml): ++
- germination of the spores (Geocrichum candidum [8]; x = 80 μg/ml): +
- germination of the spores (Geocrichum candidum [8]; x = 1280 μg/ml): 0
- Inhibition grades (Botrytis cinerea [9]; BC): 5 (80-160)
- MIC (Botrytis cinerea [9]): 80 to 160 µg/mL (≈ 493 to 987 µM)
- Inhibition grades (Penicillium digitatum [10]; PD): 4 (160-320)
- MIC (Penicillium digitatum [10]): 160 to 230 µg/mL (≈ 987 to 1420 µM)
- Inhibition grades (Phytophtora parasitica [11]; PhP): 6 (40-80)
- MIC (Phytophtora parasitica [11]): 40 to 80 µg/mL (≈ 247 to 493 µM)
- Inhibition grades (Alternaria alternata [12]; AA): 5 (80-160)
- MIC (Alternaria alternata [12]): 80 to 160 µg/mL (≈ 493 to 987 µM)
- MIC (Gliocladium roseum): 40 to 80 µg/mL (≈ 247 to 493 µM)
- Inhibition grades (Gliocladium roseum; GR): 6 (40-80)
- MIC (Fusarium oxysporum [13]): 80 to 160 µg/mL (≈ 493 to 987 µM)
- Inhibition grades (Fusarium oxysporum [13]): 5 (80-160)
- Inhibition grades (Geocrichum candidum [14]; GC): 4 (160-320)
- MIC (Geocrichum candidum [14]): 160 to 230 µg/mL (≈ 987 to 1420 µM)
